Experimental data published in PubChem BioAssay (NCI).
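Cultured in 96-well plates, cells were exposed to test compound for 48 hours across five concentrations. The concentration for full growth arrest is given as TGI.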

What was measured:
Experiment in all cases: inhibition of tumour cell growth, NCI panel, 48 h
[1] = tested on: T-47D breast
[2] = tested on: MDA-MB-231 breast
[3] = tested on: NCI-H226 lung
[4] = tested on: OVCAR-5 ovarian
[5] = tested on: SR leukemia
[6] = tested on: COLO 205 colon
[7] = tested on: ACHN renal
[8] = tested on: HS 578T breast
[9] = tested on: A549 NSCLC
[10] = tested on: HCT-116 colon

SMILES | TGI [1] | TGI [2] | TGI [3] | TGI [4] | TGI [5] | TGI [6] | TGI [7] | TGI [8] | TGI [9] | TGI [10]
COc1ccc(CN=CN/C(C#N)=C(\N)C#N)cc1OC | > 100 µM | > 100 µM | > 100 µM | > 100 µM | > 100 µM | > 100 µM | > 100 µM | > 100 µM | > 100 µM | > 100 µM
C/C(=N/O)c1cccc(Nc2nc3ccccc3c3[nH]c4ccccc4c23)c1 | 3.82 µM | 11.5 µM | 21 µM | 9.27 µM | 3.85 µM | 7.1 µM | 7.17 µM | 21.4 µM | 8.8 µM | 4.77 µM
C=C1CCCCCCCCCCC1S(=O)c1ccccc1 (stereo not given) | > 100 µM | 75.3 µM | > 100 µM | > 100 µM | 64.8 µM | 57.3 µM | > 100 µM | > 100 µM | > 100 µM | > 100 µM
CC1=Nn2c(nc3sc4c(c3c2=O)CCCC4)SC1 | > 100 µM | > 100 µM | > 100 µM | > 100 µM | > 100 µM | > 100 µM | > 100 µM | > 100 µM | > 100 µM | > 100 µM
